Test results as given in publication PMC7756582, “Prodrugs of γ‐Alkyl‐Modified Nucleoside Triphosphates: Improved Inhibition of HIV Reverse Transcriptase” (Angewandte Chemie (International Ed. in English), 2020).

Tests used:
[1] = Cytotoxicity: inhibition of CD4+ T-cell (CEM) proliferation; format: cell-based; conditions: human, CEM/0 cells (CD4+ T-cells), 50 % cytostatic concentration, mean±SD, n=2-3
[2] = test system: HIV-2(ROD); assay: Anti-HIV activity assay, HIV-2-infected thymidine-kinase-deficient CEM/TK- cell cultures; format: cell-based; conditions: Human immunodeficiency virus 2, CEM-TK(-), read-out: EC50 CEM/TK− HIV-2, thymidine-kinase-deficient CEM/TK− cells, HIV-2; mean±SD, n=2-3
Description: (§1) γ‐(AB,alkyl)‐d4TTP prodrugs 6 and the γ‐alkyl‐d4TTPs 7 were evaluated for their ability to inhibit the replication of HIV in HIV‐1‐ or HIV‐2‐infected wild‐type CEM/0 as well as mutant thymidine‐kinase‐deficient CEM cell cultures (CEM/TK^−). For comparison, two TriPPPro derivatives 5 were also included in this assay.
(§2) Anti-HIV activity assay: Inhibition of HIV-1(IIIB)- and HIV-2(ROD)-induced cytopathicity in wild-type CEM/0 and thymidine kinase-deficient CEM/TK- cell cultures was measured in microtiter 96-well plates containing ~3·105 CEM cells/mL infected with 100 CCID50 of HIV per milliliter and containing appropriate dilutions of the test compounds. After 4−5 days of incubation at 37 °C in a CO2-controlled humidified atmosphere, CEM giant (syncytium) cell formation was examined microscopically. […]
(§3) was defined as the compound concentration required to inhibit HIV-induced giant cell formation by 50%. […]
(§4) The result was visualized by fluorescence imaging. […]
as §4

[3] = molecular target: T1, HIV reverse transcriptase (RT) (Human immunodeficiency virus type 1 group M subtype B, UniProt P03366); assay: Primer extension assay with HIV-RT; format: biochemical, HIV-1; conditions: incubation 10, 20, 40 and 60 min; conversion of primer to n+1 product
T1 construct: reverse transcriptase (RT; an HIV‐encoded RNA‐dependent DNA polymerase); purchased Roboklon
Description: Primer-extension reactions:
HIV-RT and human DNA polymerase β and γ were obtained from Roboklon, human DNA polymerase α was obtained from Chimerx.
The primers and templates were purchased from Life Technologies and Microsynth. The fluorescent labeled primer was purchased
from Metabion and Microsynth. The gels were prepared with the size of 450mm×200mm×0.4mm according to the electrophoresis
5’-FITC and 5’-Cy3 labeled Primer-sequence:
The primer extension assays were performed under the following conditions:
FITC and Cy3 labeled primer extension assay:
1) Hybridization: After 5 min incubation at 95 °C in 20 mM Tris-HCl (pH 7.6) and 50 mM NaCl, the hybridization/annealing of the
primer to the template strand was achieved by a cooling phase from 95 °C to […] lasted more than 2 hours. […]
The assays were separated using a denaturating PAGE (15%). The result was visualized by fluorescence imaging. […]
as §4, §4

[4] = test system: HIV-2(ROD); assay: Anti-HIV activity assay, HIV-2-infected wild-type CEM/0 cell cultures; format: cell-based; conditions: Human immunodeficiency virus 2, CCRF-CEM, read-out: EC50 CEM/0 HIV-2
Description: as §1, §2, §3, §4, §4

[5] = Enzyme-catalyzed hydrolysis in human CD4+ T-lymphocyte CEM cell extracts; format: in vitro ADME; conditions: CEM/0 cell extracts (CD4+ T-lymphocytes); human CD4+ T-lymphocyte CEM cell extracts, 37 °C; read-out: CEM/0 cell extracts t 1/2 (converted)
Description: The stability of prodrugs 6 and the γ‐alkyl‐NTPs 7 was further investigated in human CD4 ^+ T‐lymphocyte CEM cell extracts. […] Thus, an enzymatic cleavage reaction took place. Half‐lives as low as 0.4 h (6 az) to 5.2 h (6 dz) were determined. […] This is in accordance to our previous results for the DiPPro‐[ ^17 , ^18 ] or the TriPPPro‐compounds 5.[ ^22 , ^23 ] In all cases we observed the predominant formation of γ‐alkyl‐d4TTPs 7 and d4TDP 2 d in very low concentration (Figure 2 B) but no NTP formation was detected, in contrast to the studies using the previously described TriPPPro compounds 5.[ ^23 , ^24 ] However, the difference to the compounds bearing long lipophilic acyl groups was not very pronounced (2‐ to 3‐fold). In the case of γ‐(AB‐C4,alkyl‐C18)‐d4TTP 6 cz, γ‐C18‐d4TTP 7 z was detected as the main product. After 8 h incubation, the ratio of γ‐C18‐d4TTP 7 z and d4TDP 2 d was 5:1. This was in sharp contrast to the studies performed with TriPPPro compounds 5.[ ^23 , ^24 ] There, it was almost impossible to detect significant concentrations of d4TTP due to its fast dephosphorylation to form first d4TDP and finally d4TMP 2 m. […] The formation of thymine or d4TTP 2 t from γ‐C18‐d4TTP 7 z was not detected (Supporting Information, Figure SI2).
(§5) ProLab 300 from Schott Co.. Thermomixer: Eppendorf Thermomixer 5436 and CellMedia Thermoschüttler basic were used. […]
Enzyme-catalyzed hydrolysis of γ-(AB,alkyl)-d4TTPs 6, γ-alkyl-d4TTPs 7,15 and TriPPPros 5 in CEM cell extracts:
18 µL of the appropriate 50 mM DMSO-d6 stock solution was diluted to 6.0 mM hydrolysis solution by addition of 132.0 µL DMSO-d6.
7-10 different samples including 10 µL water and 10 µL hydrolysis solution were prepared in 2 mL Eppendorf® vials. The reaction was started by addition of 50 µL human CEM cell extract and the mixture was incubated at 37 °C for different time periods. The reactions were stopped by addition of 150 μL MeOH. The solution was kept on ice for 5 min followed by centrifugation for 5 min (13000 rpm).
The supernatants were filtered (Chromafil® RC-20/15 MS, 0.2 μm) and stored in liquid nitrogen. When testing, the samples were defrosted and injection volume with 80 μL was used for HPLC analysis. The calculation of t1/2 was performed analogously to that for the chemical hydrolysis studies.
(§6) Preparation of cell extracts: Human CD4+ T-lymphocyte CEM cells were grown in RPMI-1640-based cell culture medium to a final density of ~3·10^6 cells/ml. Then, cells were centrifuged for 10 min at 1,250 rpm at 4 °C, washed twice with cold PBS, and the pellet was re-suspended at 10^8 cells/ml and sonicated (Hielscher Ultrasound Techn., 100% amplitude, 3·times for 10 sec) to destroy cell integrity. The resulting cell suspension was then centrifuged at 10,000 rpm to remove cell debris, and the supernatant divided in aliquots before being frozen at -80 C and used.

[6] = Chemical hydrolysis in aqueous phosphate buffer (PBS, pH 7.3); format: physicochemical; conditions: aqueous 25 mM phosphate buffer, pH 7.3, 37 °C; removal of AB group; n.h. = no hydrolysis observed through cleavage of AB-mask
Description: γ‐(AB,alkyl)‐NTP prodrugs 6 and γ‐alkyl‐NTPs 7 were incubated in aqueous phosphate buffer (PBS, 25 mM, pH 7.3), or were exposed to pig liver esterase (PLE) in phosphate buffer (PBS) and to human CD4^+ T‐lymphocyte cell extracts to study their stability and the product distribution. The hydrolysis mixtures were analyzed by means of analytical rp‐18‐HPLC. The calculated half‐lives of prodrugs 6 (Table 1, t 1/2) reflect the removal of the bioreversible AB group to yield γ‐alkyl‐NTPs 7. Possible hydrolysis pathways and products are summarized in Scheme 4.
As hydrolysis products, a predominant formation of γ‐alkyl‐d4TTPs 7 and a very small amount of d4TDP […] was detected (approximately 3 %). After consumption of the starting material, no further increase of d4TDP concentration was observed. This supports the hypothesis that only the double‐γ‐esterified d4TTP prodrugs 6 were prone to a bond breakage between the γ‐ and β‐phosphate. […] In contrast to previous studies with TriPPPro‐NTPs 5 containing a second cleavable mask (first generation NTP prodrugs),[ ^23 , ^24 , ^25 ] no d4TTP was detected in these studies using 6 or 7. A side reaction occurred during the studies using compounds 7 that led to the formation of thymine by the cleavage of the glycosidic bond as reported before.[ ^19 , ^22 ]
as §5
Chemical hydrolysis of prodrugs of γ-(AB,alkyl) d4TTP 6 as well as the γ-alkyl-NTPs 7,15:
Stock solutions (50mM in DMSO-d6) of compounds 6,7 were prepared. After dilution of 11 µL stock solution with 100 µL milliQ water and 189 µL DMSO-d6 to 1.9mM hydrolysis solutions the reaction was started by addition of 300 µL phosphate buffer saline (PBS, 50mM, pH 7.3). The solution was incubated at 37 C in a thermomixer. An initial aliquot (25 µL) was taken directly and analyzed by analytical HPLC at 265-266 nm. Further aliquots were taken for monitoring the kinetic hydrolysis. The exponential decay curves (pseudo-first order) based on absolute integral values were calculated with commercially available software (OriginPro 9.0G) and yielded the half-lives t1/2 of the prodrugs via one determination. […]
The calculation of t1/2 was performed analogously to that for the chemical hydrolysis studies.
as §6
(1 picture or pasted object on this page, not shown here)

[7] = test system: HIV-1(IIIB); assay: Anti-HIV activity assay, HIV-1-infected wild-type CEM/0 cell cultures; format: cell-based; conditions: Human immunodeficiency virus 1, IIIB, CCRF-CEM, read-out: EC50 CEM/0 HIV-1
Description: as §1, §2, §3, §4, §4

## CCCCCCCCCCCOP(=O)(O)OP(=O)(O)OP(=O)(O)OCC1C=CC(n2cc(C)c(=O)[nH]c2=O)O1 (stereo not shown) [7 x, γ‐C11‐d4TTP]
[1]
  CC50: 78 ± 10 µM
[2]
  EC50: 16 ± 5 µM
[3]
  comparison of substrate properties for HIV-RT: better substrates
[4]
  EC50: 0.26 ± 0.083 µM
[5]
  half-life at 0.86 mM: > 30 h
[6]
  PBS pH 7.3 t 1/2: n.h.^[c]
[7]
  EC50: 0.89 ± 0.28 µM
